Test results reported in ChEMBL document CHEMBL5096163, “Current status in the discovery of dual BET/HDAC inhibitors” (Bioorg Med Chem Lett, 2021).

Assays:
[1] = system: U-937; experiment: Cytotoxicity against human U-937 cells assessed as reduction in cell viability at 3 uM incubated for 24 hrs by MTT assay relative to control; type: functional
[2] = target: Histone deacetylase 1 (Homo sapiens) (UniProt Q13547); experiment: Inhibition of HDAC1 (unknown origin) at 10 uM relative to control
[3] = target: Histone deacetylase 3 (Homo sapiens, UniProt O15379); experiment: Inhibition of human recombinant HDAC3 using Boc-Lys(Ac)-AMC fluorogenic substrate measured after 60 mins by fluorescence assay
Chain of Histone deacetylase 3 (O15379 whole entry): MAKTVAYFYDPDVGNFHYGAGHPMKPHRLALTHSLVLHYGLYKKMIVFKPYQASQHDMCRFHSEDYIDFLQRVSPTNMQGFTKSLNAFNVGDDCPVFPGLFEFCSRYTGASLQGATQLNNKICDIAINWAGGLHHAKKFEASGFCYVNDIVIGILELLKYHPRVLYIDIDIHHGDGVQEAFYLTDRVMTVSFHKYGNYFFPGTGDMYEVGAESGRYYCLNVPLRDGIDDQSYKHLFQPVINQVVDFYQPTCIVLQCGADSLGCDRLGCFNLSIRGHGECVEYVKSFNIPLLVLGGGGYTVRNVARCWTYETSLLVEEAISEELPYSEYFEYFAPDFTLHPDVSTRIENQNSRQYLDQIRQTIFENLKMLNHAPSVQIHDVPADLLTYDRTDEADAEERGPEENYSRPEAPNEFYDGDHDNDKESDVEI

Chain of Histone deacetylase 1 (Homo sapiens) (Q13547 whole entry): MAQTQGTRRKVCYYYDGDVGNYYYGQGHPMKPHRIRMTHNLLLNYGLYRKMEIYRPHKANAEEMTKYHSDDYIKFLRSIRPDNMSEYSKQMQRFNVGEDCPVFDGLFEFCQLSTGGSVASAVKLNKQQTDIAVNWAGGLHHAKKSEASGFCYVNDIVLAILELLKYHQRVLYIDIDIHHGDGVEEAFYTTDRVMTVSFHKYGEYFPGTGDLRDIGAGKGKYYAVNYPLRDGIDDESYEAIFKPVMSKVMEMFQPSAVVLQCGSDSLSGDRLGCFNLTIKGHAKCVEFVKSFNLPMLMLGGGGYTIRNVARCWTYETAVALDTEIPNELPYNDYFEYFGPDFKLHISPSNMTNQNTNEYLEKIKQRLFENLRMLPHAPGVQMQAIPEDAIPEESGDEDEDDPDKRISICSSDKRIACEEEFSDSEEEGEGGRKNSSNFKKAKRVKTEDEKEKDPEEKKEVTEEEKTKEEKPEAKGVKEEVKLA

| SMILES | Activity [1] [%] | inhibition [2] [%] | IC50 [3] [nM] |
| --- | --- | --- | --- |
| Cc1sc2c(c1C)C(c1ccc(Cl)cc1)=N[C@@H](CC(=O)NCCCC(=O)Nc1ccccc1N)c1nnc(C)n1-2 | 16.12 |  |  |
| Cc1noc(C)c1-c1cnc2c(c1)c(Cc1ccc(F)cc1)cn2CCCCCCC(=O)NO |  | 88 | 5 |
| COC(c1c(F)cccc1Cl)c1c[nH]c2ncc(-c3c(C)noc3C)cc12 (stereo not given) |  |  | 5 |
| O=C(CCCCCCn1cc(Cc2ccccc2)c2cccnc21)NO |  |  | 60 |
